Measured values taken from patent US8552013B2, “Heterocyclic compounds based on N6-substituted adenine, methods of their preparation, their use for preparation of drugs, cosmetic preparations and growth regulators, pharmaceutical preparations, cosmetic preparations and growth regulators containing these compounds” (USTAV Experimentalni Botaniky Akademie Ved Ceske Republiky, priority 2001, dated 2013).

Legend:
[1] = test system: Rosa hybrida 'Pailin' explants; test: Early shoot senescence of tissue cultured roses; assay type: in vivo; conditions: for relative number of dead plants in relation to culture time: 10 μM in medium
Protocol: Rosa hybrida ‘Pailin’ (a cut rose) was cultured in 350 ml vessels with a screw on polycarbonate lid. Each culture vessel contained 100 ml autoclaved medium (120° C., 20 min). The cultures were maintained at 23±2° C. under a 16 h photoperiod at 40 μM m^−2 s^−1 PAR. The basal medium (BMR) contained Murashige and Skoog (1962) macroelements, microelements and vitamins, 36.7 mg/l NaFeEDTA, 50 mg/l NaFeEDDHA, 100 mg/l […] myo-inositol, 30 g/l sucrose, 100 mg/l glycine, 50 mg/l calcium pantothenate, 100 mg/l L-glutamine and 7 g/l agar-agar. This medium was supplemented with 10 μM BA, mT and mMeOBAP. The last 2 cytokinins were filter sterilised and added after autoclaving the medium in the vessels. The control medium didn't contain any cytokinin. After a culture period of 6 weeks, scoring senescence symptoms was started.

[2] = test system: Rosa hybrida (pot rose cultivar) explants; test: In vitro and post vitro shoot multiplication and rooting of rose; assay type: in vivo; conditions: for Root number per plant / Total root length per plant: Ex vitro, four weeks of acclimatising; for Flower number per explant / Number of new shoots per explant / Root number per explant / Total root length per explant: In vitro, 10 μM, 8 weeks
Protocol: The aim of this experiment was to test whether the new compounds are of practical use in tissue culture practice. The multiplication rate was investigated and the post vitro effects on rooting were examined. Rosa hybrida (pot rose cultivar) was cultured in 350 ml vessels with a screw on polycarbonate lid. Each culture vessel contained 100 ml autoclaved medium (120° C., 20 min). The cultures were maintained at 23±2° C. under a 16 h photoperiod at 40 μM m^−2 s^−1 PAR. The basal medium (BMR) contained Murashige and Skoog (1962) macroelements, microelements and vitamins, 95 μM NaFeEDTA, 555 μM myo-inositol, 111 mM sucrose, 1.332 mM glycine, 684 μM L-glutamine and 7 g/l agar. This medium was supplemented with 10 μM BA, mT, oMeOBAP or mMeOBAP (compound no. 14 and 15, respectively). The control medium didn't contain any cytokinin. After a culture period of 8 weeks, the number of induced shoots per explant was determined, as well as root number/explant and total root length/explant. The roots were removed and the explants (shoot clusters) were planted in unfertilised peat. After four weeks of acclimatising in a fog unit, root number and root length was determined.

[3] = test system: senescent human skin fibroblasts; test: Actin staining of senescent cells (FITC-Phalloidin); assay type: cell-based; conditions: after 3 days; meta 40 μM
Text: Actin staining: The pattern of cytoskeletal actin staining was studied by staining the cells with florescent ligand FITC-labelled Phalloidin, using a fluorescence microscope

[4] = test system: senescent human skin fibroblasts; test: Numbers of surviving senescent cells (Coulter counter); assay type: cell-based; conditions: 7 to 14 days of treatment
Protocol: Equal numbers of senescent cells were seeded in separate flasks and were treated with different concentrations of para-topolin. Cell numbers were determined by using a Coulter counter after trpsinization and resuspension of cells after 7 and 14 days of treatment.
Equal numbers of senescent cells were seeded in separate flasks and were treated with different concentrations of ortho-topolin. Cell numbers were determined by using a Coulter counter after trypsinisation and resuspension of cells, after 7 and 14 days of treatment.

[5] = test system: senescent human skin fibroblasts; test: Morphology of senescent cells; assay type: cell-based; conditions: for appearance of senescent cells on longer treatment: 14 days, ortho and meta 80 μM and above; for appearance of senescent cells: after 7 days of treatment (para: 7 days and 14 days; meta: low concentrations)
Protocol: (§1) All experiments were performed on early and mid passage cultures (about 20 to 40% lifespan completed) of normal human adult skin fibroblast line; designated ASF-2 & Senetek cell line (about 10-90% lifespan completed); designated as SF20. In order to check the effects of test compounds on senescent cells, late passage cells with more than 95% lifespan completed were used. ASF-2 and SF20 cell lines were established from a mammary skin biopsy obtained from a young, non-smoking and healthy […] at the time of breast reduction operation. Normal culture conditions of medium (DMEM) containing antibiotics, 10% foetal calf serum, and incubation at 37° C. with 95% humidity were used. The effects of the test chemicals were determined in the following conditions:
Senescent human skin fibroblasts were treated with various doses of para-topolin to see if this treatment could reverse age-related alterations in their morphology. […] The cells progressively became heterogeneous with large and flattened appearance.

human skin fibroblasts [6] = test: beta-galactosidase staining of treated skin fibroblasts; assay type: cell-based; conditions: short-term growth treatment
proteasome = test: Proteasomal chymotrypsin-like activity in cell extracts of treated cells; assay type: cell-based, human; conditions: 40, 80 and 200 μM
Protocol: Chymotrypsin-like activity in cell extracts prepared from treated and untreated cells was determined by in vitro degradation of oligopeptides by the proteasome.

human skin fibroblasts [7] = test: Apoptosis assay in treated skin fibroblasts; assay type: cell-based; conditions: 3 days of treatment; ortho 200 μM
human skin fibroblasts [8] = test: Cell attachment of human skin fibroblasts; assay type: cell-based; conditions: for attachment / Percent of cells attached, effect in words: ortho 40 to 400 μM, meta 40 to 200 μM; for Percent of cells attached, effect in words: para 40 μM to 1 mM; for Overall cell attachment improved (summary): para at 40, 80, 100, 160, 250 and 500 μM
Protocol: as §1, with “conditions: […]” for “conditions:”

human skin fibroblasts [9] = test: Series of experiments on short-term effects on human skin fibroblasts, conclusion; assay type: cell-based; conditions: para at a dose of 40 μM
Protocol: as §1
The experiments were performed to determine the effects of short-term treatment of ortho-topolin, meta-topolin, and para-topolin on cell attachment, survival, growth, apoptosis, actin cytoskeletal pattern, lysosomal activity, proteasomal activity and morphology of human skin fibroblasts in culture.

COc1cccc(CNc2ncnc3nc[nH]c23)c1 [6-(3-methoxybenzylamino)purine]
relative number of dead plants in relation to culture time [1]: the situation improved | plants alive ([1]; 10 μM, after 121 days): almost all plants were still alive | Root number per plant [2]: 1.7 | Total root length per plant [2]: 4.1 cm | Flower number per explant [2]: 0.03 | Number of new shoots per explant [2]: 4.3 | Root number per explant [2]: 0.0 | Total root length per explant [2]: 0.0 cm

Oc1ccccc1CNc1ncnc2nc[nH]c12 [ortho-topolin, 6-(2-hydroxybenzylamino)purine]
actin staining pattern in senescent cells [3]: no obvious differences | numbers of surviving senescent cells [4]: reduces the number of surviving senescent cells significantly | appearance of senescent cells on longer treatment [5]: unhealthy and sick | appearance of senescent cells [5]: no significant differences | number of prematurely senescent cells, beta-galactosidase staining (human skin fibroblasts [6]): did not show any increase | proteasomal activity (chymotrypsin-like), removal of oxidized and abnormal proteins (proteasome): failed to show such an effect | apoptosis assay (human skin fibroblasts [7]): some induction of apoptosis | attachment (human skin fibroblasts [8]; 6 hours): 80 to 90% | Percent of cells attached, effect in words (human skin fibroblasts [8]; 6 hours): not affected to any significant extent | Overall cell attachment improved (summary) (human skin fibroblasts [8]): No improvements | conclusion on short-term effects on human skin fibroblasts (human skin fibroblasts [9]): little or no beneficial effects

Oc1cccc(CNc2ncnc3nc[nH]c23)c1 [meta-topolin, 6-(3-hydroxybenzylamino)purine]
actin staining pattern in senescent cells [3]: depolymerised actin filaments to some extent | relative number of dead plants in relation to culture time [1]: the situation improved | numbers of surviving senescent cells [4]: reduces the number of surviving senescent cells in a dose dependent manner | effects on morphology of senescent cells ([5]; 200 μM and above, within 7 days): some negative effects | appearance of senescent cells on longer treatment [5]: unhealthy and sick | appearance of senescent cells [5]: no significant differences | proteasomal activity (chymotrypsin-like), removal of oxidized and abnormal proteins (proteasome): failed to show such an effect | apoptosis assay (human skin fibroblasts [7]): cell death at 40 μM and above | reduction in cell attachment (human skin fibroblasts [8]; 400 μM, 6 hours): 20% | attachment (human skin fibroblasts [8]; 6 hours): about 80% | Percent of cells attached, effect in words (human skin fibroblasts [8]; 6 hours): not affected to any significant extent | Overall cell attachment improved (summary) (human skin fibroblasts [8]): No improvements | conclusion on short-term effects on human skin fibroblasts (human skin fibroblasts [9]): little or no beneficial effects | Root number per plant [2]: 1.4 | Total root length per plant [2]: 3.8 cm | Flower number per explant [2]: 0.16 | Number of new shoots per explant [2]: 2.1 | Root number per explant [2]: 0.0 | Total root length per explant [2]: 0.0 cm
